Read-outs that look alike come from different tables or passages of the source.
Experiments:
[1] = target: saccharase/isomaltase (SI complex) (Sus scrofa, UniProt P56729); assay: Stability with respect to small intestine α-glucosidases: saccharase/isomaltase; conditions: 120 min incubation
From the text: Solution 6: 1% solution of maltose in solution 1
Solution 7: 1% solution of sucrose in solution 1
Solution 8: 1% solution of isomalt in solution 1
Solution 9: 1% solution of isomaltulose in solution 1
Solution 10: Saccharase/isomaltase enzyme complex in solution 1

[2] = tested on: glucoamylase/maltase (GM complex)
Protocol: (§1) Solution 1: 0.1 mol/L triethanolamine (TEA) buffer, pH 7.0
(§2) Solution 11: Glucoamylase/maltase enzyme complex in solution 1
(§3) i) 0.7 unit of the enzyme complex saccharase/isomaltase (solution 10) or glucoamylase/maltase (solution 11) was added in each case to 1.0 mL of a carbohydrate solution heated to 37° C. (solution 2 to solution 8), mixed and incubated at 37° C.
(§4) ii) For incubation under more severe conditions, 16 units of the enzyme complex saccharase/isomaltase or 13 units of the enzyme complex glucoamylase/maltase were used. The reaction was stopped after 2 h by heating to 95° C. for 15 min. The resulting monosaccharides and the undegraded saccharides of the relevant batches were quantitatively determined by HPAEC.

[3] = Stability in the stomach: hydrolysis rate at pH 2.0; type: physicochemical; conditions: 1% solution, 10 mmol/L hydrochloric acid, pH 2.0, 37° C.
Protocol: The stability of a substance in the gastric passage can be simulated by determining the hydrolysis rate at pH 2.0. Sucrose and 1-kestose are used as controls.
In each case a 1% solution of the trisaccharides (DP 3) from Example 4 is incubated with 10 mmol/L hydrochloric acid, pH 2.0 at 37° C. for 3 h. Samples are taken from the reaction mixture after 60, 120 and 180 min and are analyzed by basic anion exchange chromatography, HPAEC.

human feces = assay: In vitro fermentation in human feces; type: cell-based; conditions: for Butyrate content (end sample): end of fermentation with human feces; for Degradation rate: 0.5% (w/v) substrate, feces suspension, anaerobic, 37° C.
Protocol: Incubation of carbohydrates with human feces allows statements to be made about the rate of metabolization by the bacterial population and formation of the short-chain fatty acid butyric acid.
To invest the fermentability in an in vitro fermentation experiment, Raftilose® P95 (fructooligosaccharides, DP4-5), galactosyl lactose (Oligomate DP 3) and lactosucrose were used for comparison as carbohydrates of similar structure and degree of polymerization, in addition to β-galactosyl isomalts.
An anaerobic medium of the following composition was used for the in vitro experiments:
9 mL of the anaerobic medium 1 described above are mixed with 0.5% (w/v) of the galactosyl isomalts to be tested (prepared according to Examples 1-3) and the corresponding controls lactosucrose and galactosyl lactose and then inoculated with 1 mL of a 10% feces suspension (mixed feces from two subjects) in anaerobic 50 mmol/L phosphate buffer, pH 7.0, to which 0.5 g/L cysteine/HCl was added beforehand as reducing agent.
The batches are then incubated in “Hungate” test tubes for a maximum of 28 h while shaking at 37° C. Samples are taken at various times and tested for content of residual oligosaccharides, short-chain fatty acids, lactic acid and pH.

lactase = assay: Stability with respect to lactase; type: in vitro ADME; conditions: 0.9 unit lactase, 1% solution, 37° C., 6 h
From the text: The enzyme lactase that is present at the mucosa in the small intestine serves in vivo to break down lactose that gets into the small intestine and the resulting monosaccharides are absorbed into the bloodstream through the intestinal wall.
The enzyme lactase is isolated in a modified method of Wallenfels, K., and Fischer, J. (Z. Physiologische Chemie 321 (1960) 223).
Solutions 1-5: see Example 8c)
Solution 6: 1% solution of lactose in solution 1
Solution 7: 1% solution of isomalt in solution 1
Solution 8: Lactase in solution 1
(solutions 2-7), mixed and incubated at 37° C. The reaction is stopped after 6 h by heating to 95° C. for 15 min.

[4] = tested on: pancreatin enzyme (Sigma); assay: Stability with respect to pancreatic enzymes; type: in vitro ADME; conditions: 1% solution, 0.2% pancreatin, pH 7.0, 210 min at 37° C.
Protocol: The pancreatic secretion contains a large number of hydrolases, including carbohydrate-degrading enzymes like α-amylase, which breaks down α-1,4-glucans (starch, glycogen) preferably to maltose and maltooligosaccharides. The test of the stability of saccharides with respect to pancreatic enzymes is carried out as follows.
3.0 mL of a carbohydrate solution (solution 2 to solution 6) is mixed with 0.1 mL of the enzyme solution (solution 7) per batch:
Solution 1: 20 mmol/L Na phosphate buffer, pH 7.0, with 6 mmol/L NaCl
Solution 2: 1% solution of β-1,4-galactosyl isomalt mixture in accordance with the invention, prepared according to Example 2 and Example 4, in solution 1
Solution 3: 1% solution of β-1,3-galactosyl isomalt mixture in accordance with the invention, prepared according to Example 1 and Example 4, in solution 1
Solution 4: 1% solution of β-1,6-galactosyl isomalt mixture in accordance with the invention; prepared according to Example 3 and Example 4, in solution 1
Solution 6: 1% starch solution (soluble starch, according to Zulkowski), in solution 1
Solution 7: 0.2% pancreatin enzyme (Sigma), dissolved in solution 1
After 210 min incubation in a thermomixer (interval shaking) at 37° C., the reaction is stopped by heating to 95° C. for 15 min and the samples are analyzed by HPAEC. The starch-containing sample (solution6+solution 7) is completely hydrolyzed before the HPAEC analysis by heating for 3 h in 1 mol/L hydrochloric acid at 95° C., and the glucose resulting from this is determined in order to calculate the starch content of the sample.

[5] = tested on: glucoamylase/maltase (GM complex); assay: Stability with respect to small intestine α-glucosidases: glucoamylase/maltase; conditions: 120 min incubation
Protocol: as §1, §2, §3, §4

[6] = Standard (0.7 unit), 37° C., pH 7.0

Sequence of saccharase/isomaltase (SI complex) (P56729 with tags, fused parts or gaps limits assumed): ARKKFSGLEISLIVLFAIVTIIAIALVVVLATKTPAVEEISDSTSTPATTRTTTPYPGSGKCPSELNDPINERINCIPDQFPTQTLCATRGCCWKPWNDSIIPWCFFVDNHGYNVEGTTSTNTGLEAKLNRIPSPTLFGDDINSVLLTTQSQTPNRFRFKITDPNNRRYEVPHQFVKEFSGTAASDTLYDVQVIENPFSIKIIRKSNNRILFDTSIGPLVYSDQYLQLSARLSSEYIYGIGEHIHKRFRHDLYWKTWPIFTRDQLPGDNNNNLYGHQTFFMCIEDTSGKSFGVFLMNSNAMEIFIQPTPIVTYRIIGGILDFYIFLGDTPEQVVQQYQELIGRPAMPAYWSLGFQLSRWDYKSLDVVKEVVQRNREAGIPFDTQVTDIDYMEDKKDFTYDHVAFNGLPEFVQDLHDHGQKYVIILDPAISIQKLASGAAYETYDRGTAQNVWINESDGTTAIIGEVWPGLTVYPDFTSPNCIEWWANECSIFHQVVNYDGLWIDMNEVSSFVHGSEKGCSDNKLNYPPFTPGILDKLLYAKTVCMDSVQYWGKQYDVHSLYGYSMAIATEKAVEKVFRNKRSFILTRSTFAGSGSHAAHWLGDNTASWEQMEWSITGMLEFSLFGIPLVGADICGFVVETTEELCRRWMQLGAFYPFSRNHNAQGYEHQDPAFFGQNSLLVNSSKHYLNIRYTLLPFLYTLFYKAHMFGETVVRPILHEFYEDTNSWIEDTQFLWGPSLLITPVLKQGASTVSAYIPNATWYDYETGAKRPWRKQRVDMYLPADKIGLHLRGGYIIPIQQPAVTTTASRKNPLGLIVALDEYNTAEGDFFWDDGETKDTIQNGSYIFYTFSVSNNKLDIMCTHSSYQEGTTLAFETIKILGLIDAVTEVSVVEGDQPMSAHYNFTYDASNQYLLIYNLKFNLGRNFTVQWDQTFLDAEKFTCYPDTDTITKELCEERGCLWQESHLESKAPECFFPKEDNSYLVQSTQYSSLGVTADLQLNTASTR
Sequence of saccharase/isomaltase (SI complex) (P56729 with tags, fused parts or gaps limits assumed): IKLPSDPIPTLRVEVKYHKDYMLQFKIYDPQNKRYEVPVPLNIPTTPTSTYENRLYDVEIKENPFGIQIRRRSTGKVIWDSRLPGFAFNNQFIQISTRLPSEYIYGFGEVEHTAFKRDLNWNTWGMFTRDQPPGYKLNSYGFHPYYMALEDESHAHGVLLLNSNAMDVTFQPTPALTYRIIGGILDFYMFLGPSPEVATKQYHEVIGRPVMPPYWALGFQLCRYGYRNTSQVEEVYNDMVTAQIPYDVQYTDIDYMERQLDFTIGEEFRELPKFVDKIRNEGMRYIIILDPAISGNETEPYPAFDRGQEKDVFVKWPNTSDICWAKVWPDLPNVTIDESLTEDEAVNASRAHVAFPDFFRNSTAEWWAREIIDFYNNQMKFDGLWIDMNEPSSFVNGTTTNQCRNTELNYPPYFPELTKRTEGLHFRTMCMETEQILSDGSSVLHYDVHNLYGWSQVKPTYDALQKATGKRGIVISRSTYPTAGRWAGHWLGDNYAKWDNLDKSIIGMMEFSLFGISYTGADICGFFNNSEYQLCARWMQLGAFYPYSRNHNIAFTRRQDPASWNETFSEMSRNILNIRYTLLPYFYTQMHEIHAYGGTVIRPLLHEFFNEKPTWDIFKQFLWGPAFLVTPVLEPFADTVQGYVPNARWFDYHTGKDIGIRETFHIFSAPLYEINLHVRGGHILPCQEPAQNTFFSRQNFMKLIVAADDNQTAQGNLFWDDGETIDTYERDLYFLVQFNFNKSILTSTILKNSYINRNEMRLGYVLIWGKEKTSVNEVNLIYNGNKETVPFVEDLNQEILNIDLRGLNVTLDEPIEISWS

Compound	Hydrolysis rate [%] ([3]; incubation time 0 min)	Hydrolysis rate [%] ([3]; incubation time 60 min)	Hydrolysis rate [%] ([3]; incubation time 120 min)	Hydrolysis rate [%] ([3]; incubation time 180 min)	Butyrate content (end sample) (human feces) [mmol/L]	Degradation rate (human feces; incubation time 7 (h)) [%]	Degradation rate (human feces; incubation time 22 (h)) [%]	Hydrolysis rate [%], incubation with lactase (lactase) [%]	Hydrolysis rate [%] [5, 6]	further results
Isomalt										Hydrolysis rate [%] ([1]; More stringent (16 units)): 52.4%; Hydrolysis rate [%] ([1]; More stringent (16 units), listed as isomalt): 52%; Hydrolysis rate [%] [1, 6]: 3.5%; Hydrolysis rate [%] ([1]; Standard (0.7 unit), 37° C., pH 7.0, listed as isomalt): partially broken down; Hydrolysis rate [%] [2]: 12.8%; Hydrolysis rate [%] ([2]; pH 7): 0%
OC[C@H]1O[C@@](CO)(O[C@H]2O[C@H](CO)[C@@H](O)[C@H](O)[C@H]2O)[C@@H](O)[C@@H]1O [Sucrose, reference compound]	0	2	5	8						Hydrolysis rate [%] ([1]; Standard (0.7 unit), 37° C., pH 7.0, listed as saccharose): Nearly complete hydrolysis
galactosyl lactose [Galactosyl-Lactose (Oligomate DP 3), reference compound]					6.3	96.6	100			content of butyrate formed at the end of the fermentations (human feces): about 6 mmol/L; Degradation rate (human feces; incubation time 7 (h), listed as galactosyl lactose): nearly completely metabolized; Degradation rate (human feces; incubation time 14 (h)): 99.5%
OC[C@H]1O[C@@H](O[C@H]2[C@H](O)[C@@H](O)C(O)O[C@@H]2CO)[C@H](O)[C@@H](O)[C@H]1O (some centres unmarked) [Lactose, reference compound]								95.6		Hydrolysis rate [%], incubation with lactase (lactase; listed as lactose): Nearly complete hydrolysis
OC[C@H]1O[C@@H](O[C@H]2[C@H](O)[C@@H](O)[C@@H](O[C@]3(CO)O[C@H](CO)[C@@H](O)[C@@H]3O)O[C@@H]2CO)[C@H](O)[C@@H](O)[C@H]1O [Lactosucrose, reference compound]					6.5	98.9				content of butyrate formed at the end of the fermentations (human feces): about 6 mmol/L; Degradation rate (human feces; incubation time 7 (h), listed as lactosucrose): nearly completely metabolized; Degradation rate (human feces; incubation time 14 (h)): 100%
OCC1O[C@@H](O[C@@H]2C(CO)O[C@H](OC[C@@H](O)[C@@H](O)[C@H](O)C(O)CO)C(O)C2O)C(O)C(O)[C@H]1O (mixture of isomers) [β-1,4-Galactosyl isomalt, β-D-galactosyl-(1→4)-α-D-glucosyl-(1→6)-D-sorbitol (β-1,4-galactosyl-1,6-GPS) and β-D-galactosyl-(1→4)-α-D-glucosyl-(1→1)-D-mannitol(β-1,4-galactosyl-1,1-GPM)]	0	0	0	<1		61	97.7	13.4	0%	Decomposition rate [%] [4]: <1%; Degradation rate (human feces; incubation time 28 (h)): 96%; Hydrolysis rate [%] ([5]; More stringent (13 units)): 0%
OC[C@H]1O[C@H](OC[C@H]2O[C@](O)(CO)[C@@H](O)[C@@H]2O)[C@H](O)[C@@H](O)[C@@H]1O [Isomaltulose, 6-O-α-D-glucopyranosyl-(1→6)-β-D-fructofuranose]										Hydrolysis rate [%] ([1]; More stringent (16 units)): 79.0%; Hydrolysis rate [%] [1, 6]: 18.0%; Hydrolysis rate [%] [2]: 39.9%; Hydrolysis rate [%] ([2]; pH 7): 3.1%
OCC1O[C@@H](OCC2O[C@H](OC[C@@H](O)[C@@H](O)[C@H](O)C(O)CO)C(O)C(O)[C@@H]2O)C(O)C(O)[C@H]1O (mixture of isomers) [β-1,6-Galactosyl isomalt, β-D-galactosyl-(1→6)-α-D-glucosyl-(1→6)-D-sorbitol(β-1,6-galactosyl-1,6-GPS) and β-D-galactosyl-(1→6)-α-D-glucosyl-(1→1)-D-mannitol(β-1,6-galactosyl-1,1-GPM)]	0	0	0	<1	15.3	64.2	96.1	9.3	0%	Decomposition rate [%] [4]: <1%; Degradation rate (human feces; incubation time 28 (h)): 99.2%; Hydrolysis rate [%] ([5]; More stringent (13 units)): 0%
OC[C@H]1O[C@H](O[C@H]2[C@H](O)[C@@H](O)[C@H](O)O[C@@H]2CO)[C@H](O)[C@@H](O)[C@@H]1O [Maltose]									Nearly complete hydrolysis	
OC[C@H]1O[C@@](CO)(OC[C@@]2(O[C@H]3O[C@H](CO)[C@@H](O)[C@H](O)[C@H]3O)O[C@H](CO)[C@@H](O)[C@@H]2O)[C@@H](O)[C@@H]1O [1-Kestose, reference compound]	0	11	25	36						

Source: patent US20060008574A1, “Galactosyl isomalt, method for production and use thereof” (priority 2002, published 2006)
